Assay results from patent US20250360161A1, “CHEMICALLY MODIFIED HEPARIN” (IHP Therapeutics Inc., priority 2022, published 2025).

Assays:
[1] = test system: BxPC3 human pancreatic cancer cells; test: Pancreatic cancer BxPC3 subcutaneous model, tumor volume; assay type: in vivo, nude mice; conditions: day 70; gemcitabine 100 mg/kg i.p. q3 day; Compounds A, B 5 mg/kg s.c. bid, 10 mg/kg from day 56
Procedure: A study was conducted to evaluate the anti-cancer activity of Compound A and Compound B in a mouse model of pancreatic cancer. Human pancreatic cancer cells, BxPC3, were implanted subcutaneously (1×10^6 cells in 100 μL Matrigel) in 6 week old female nude mice (5 mice per group). Treatment began on day 7 after implantation, with either gemcitabine (100 mg/kg i.p. q3 day), Compound A (5 mg/kg s.c. bid), or Compound B (5 mg/kg s.c. bid). Tumor volume was measured with calipers each week. On day 56 the dose of both Compound A and B were increased to 10 mg/kg s.c. bid. At day 70 animals were sacrificed and tumors resected, fixed, and stored for further testing.

[2] = test system: P-selectin; test: P-selectin-mediated HL-60 cell binding to immobilized P-selectin/Fc chimera; assay type: cell-based; conditions: HL-60 cells, best-fit values
Procedure: 96 well plates were coated with 10 μg/mL Protein A overnight, then blocked with 2% FBS for 1 hour. 2 μg/mL P-selectin/Fc chimera was bound to the Protein A for 3 hours at 4° C. HL-60 cells (2e5 cells/well, CMFDA labeled) were then layered onto the P-selectin and allowed to bind for 1 hour at room temperature. Wells were treated concurrently with test samples to determine inhibitory binding activity. After 1 hour, unbound cells were washed and bound cells lysed in a 1% Triton-X solution and read on a Fluorimeter at 480/520 nm.

Row | Compound | reduction of tumor volume [1] | P-sel IC50 [2] [µg/mL]
1 | Nc1ccn([C@@H]2O[C@H](CO)[C@@H](O)C2(F)F)c(=O)n1 [Gemcitabine, gemcitabine] | approximately 58% | –
2 | enoxaparin | – | 64.72
